Type in all cases: functional, cell-based
In test [1] the test system is PC-12. The experiment in a line: Neuritogenic activity in rat PC12 cells assessed as induction of neurite outgrowth at 40 uM after 3 days using Giemsa staining by microscopic analysis.
The test system of test [2] is PC-12. In words: Neuritogenic activity in rat PC12 cells assessed as induction of neurite outgrowth at 20 uM after 3 days using Giemsa staining by microscopic analysis.
Test [3] relates to PC-12. In words: Neuritogenic activity in rat PC12 cells assessed as induction of neurite outgrowth at 20 uM after 3 days using Giemsa staining by microscopic analysis in presence of ERK1/2 inhibitor PD98059.
Test [4] has as its system PC-12. The experiment in a line: Neuritogenic activity in rat PC12 cells assessed as induction of neurite outgrowth at 500 nM after 3 days using Giemsa staining by microscopic analysis.
In test [5] the test system is PC-12. The experiment in a line: Neuritogenic activity in rat PC12 cells assessed as induction of neurite outgrowth at 1 uM after 3 days using Giemsa staining by microscopic analysis.
For test [6], the system named is PC-12. The experiment in a line: Neuritogenic activity in rat PC12 cells assessed as induction of neurite outgrowth at 2 uM after 3 days using Giemsa staining by microscopic analysis.

Structures are written as SMILES. Active and inactive are the calls of the source. The calls are words filed in the database; no cut-off is given here.

For the compound `CCOC(=O)c1c(OC)c(-c2ccccc2)c[nH]c1=O`, the outcome in the test on PC-12 [1] was inactive.

Consider `CCOC(=O)c1c(OC)c(-c2cccnc2)c[nH]c1=O`, for which the result with PC-12 [1] was inactive.

Regarding `CCOC(=O)c1c(OC)c(-c2ccc(N)cc2)c[nH]c1=O`, the outcome in the test with PC-12 [1] was inactive.

As for `CCOC(=O)c1c(OC)c(-c2ccc(NC(=O)OC(C)(C)C)cc2)c[nH]c1=O`, in the test on PC-12 [1], the result was inactive.

Take `CCOC(=O)c1c(OC)c(-c2ccc(OC)cc2)cn(C)c1=O`: the result in the test with PC-12 [2] was inactive.

On to `COc1cc(-c2cccnc2)ccc1O`, for which the result in the test on PC-12 [2] was inactive.

For the compound `CCOC(=O)c1c(OC)c(-c2ccc(C(C)(C)C)cc2)c[nH]c1=O`, the outcome in the test with PC-12 [1] was inactive.

For the compound `CCOC(=O)c1c(OC)c(-c2ccc(O)c(OC)c2)c[nH]c1=O`, the result in the test with PC-12 [2], in the test on PC-12 [5] and in the test with PC-12 [6] was Active. In addition, the outcome in the test with PC-12 [3] and in the test on PC-12 [4] was inactive.

Turning to `CCOC(=O)c1c(OC)c(-c2ccc(O)cc2)c[nH]c1=O`, the result with PC-12 [2] was Active.

With `CCOC(=O)c1c(OC)c(-c2ccc(O)cc2)cn(C)c1=O`, in the test with PC-12 [2], the result was Active.

As to `CCOC(=O)c1c(O)c(-c2ccc(O)cc2)c[nH]c1=O`, the outcome in the test on PC-12 [2] was Active.

Turning to `CCOC(=O)c1c(OC)c(-c2ccncc2)c[nH]c1=O`, in the test on PC-12 [1], the result was inactive.

With `CCOC(=O)c1c(OC)c(-c2ccc(OC)cc2)c[nH]c1=O`, in the test on PC-12 [2], the result was inactive.

On to `CCOC(=O)c1c(OC)c(-c2ccc(F)cc2)c[nH]c1=O`, for which, in the test on PC-12 [1], the outcome was inactive.

For the origin of these results see ChEMBL document CHEMBL3217421, “Truncated militarinone fragments identified by total chemical synthesis induce neurite outgrowth” (Medchemcomm, 2013).
